Reference: ChEMBL document CHEMBL5390218, “Benzimidazole derivatives as tubulin polymerization inhibitors: Design, synthesis and in vitro cytotoxicity studies” (Bioorg Med Chem Lett, 2023)
Active and inactive are the calls of the source. No cut-off for these calls is given here.

Legend:
SK-MEL-28 [1] = experiment: Induction of cell cycle arrest in human SK-MEL-28 cells assessed as accumulation of cells at G0-G1 phase at 2.5 uM measured after 48 hrs by PI staining based flow cytometry (reference value: 74.32%); format: functional
SK-MEL-28 [2] = experiment: Induction of cell cycle arrest in human SK-MEL-28 cells assessed as accumulation of cells at S phase at 1 uM measured after 48 hrs by PI staining based flow cytometry (reference value: 16.5%); format: functional
HCT-116 = experiment: Anticancer activity against human HCT-116 cells assessed as inhibition in cell growth measured after 72 hrs by MTT assay; format: functional, cell-based; conditions: HCT-116, 72 h
[3] = Selectivity index, ratio of IC50 for NRK-52E cells to ratio of IC50 for human A549 cells; format: toxicity; conditions: rat (NRK-52E), NRK-52E cells versus A549 cells, read-out: Selectivity Index
SK-MEL-28 [4] = experiment: Induction of morphological changes in human SK-MEL-28 cells assessed as chromatin condensation at 1 to 5 uM measured after 48 hrs DAPI staining based analysis; format: functional, cell-based; conditions: dose 1-5 µM
SK-MEL-28 [5] = experiment: Induction of apoptosis in human SK-MEL-28 cells assessed as late apoptotic cells at 1 uM incubated for 24 hrs by Annexin V-FITC/PI dual staining based flow cytometry analysis (reference value: 0.1%); format: functional
SK-MEL-28 [6] = experiment: Inhibition of colony formation in human SK-MEL-28 cells incubated for 48 hrs by crystal violet staining based colony formation assay; format: functional, cell-based; conditions: dose 1-5 µM
SK-MEL-28 [7] = experiment: Induction of cell cycle arrest in human SK-MEL-28 cells assessed as accumulation of cells at G2 phase at 1 uM measured after 48 hrs by PI staining based flow cytometry (reference value: 9.17%); format: functional
SK-MEL-28 [8] = experiment: Induction of apoptosis in human SK-MEL-28 cells assessed as late apoptotic cells at 2.5 uM incubated for 24 hrs by Annexin V-FITC/PI dual staining based flow cytometry analysis (reference value: 0.1%); format: functional
SK-MEL-28 [9] = experiment: Induction of mitochondrial membrane potential changes in human SK-MEL-28 cells assessed as J-aggregate level by measuring red fluorescence intensity at 2.5 uM incubated for 48 hrs by JC-1 staining based analysis (reference value: 98.9%); format: functional
SK-MEL-28 [10] = experiment: Induction of cell cycle arrest in human SK-MEL-28 cells assessed as accumulation of cells at S phase at 5 uM measured after 48 hrs by PI staining based flow cytometry (reference value: 16.5%); format: functional
[11] = Selectivity index, ratio of IC50 for NRK-52E cells to ratio of IC50 for human HCT-116 cells; format: toxicity; conditions: rat (NRK-52E), NRK-52E cells versus HCT-116 cells, read-out: Selectivity Index
SK-MEL-28 [12] = experiment: Induction of cell cycle arrest in human SK-MEL-28 cells assessed as accumulation of cells at G2 phase at 2.5 uM measured after 48 hrs by PI staining based flow cytometry (reference value: 9.17%); format: functional
[13] = Selectivity index, ratio of IC50 for NRK-52E cells to ratio of IC50 for mouse B16-F10 cells; format: toxicity; conditions: NRK-52E cells versus B16-F10 cells, read-out: Selectivity Index
SK-MEL-28 [14] = experiment: Induction of apoptosis in human SK-MEL-28 cells assessed as necrotic cells at 2.5 uM incubated for 24 hrs by Annexin V-FITC/PI staining based flow cytometry analysis (reference value: 0.1%); format: functional
SK-MEL-28 [15] = experiment: Induction of morphological changes in human SK-MEL-28 cells assessed as cell shrinkage by ethidium bromide/acridine orange staining based analysis; format: functional; conditions: dose 1-5 µM
SK-MEL-28 [16] = experiment: Anticancer activity against human SK-MEL-28 cells assessed as inhibition in cell growth measured after 72 hrs by MTT assay; format: functional, cell-based; conditions: SK-MEL-28, 72 h
SK-MEL-28 [17] = experiment: Induction of apoptosis in human SK-MEL-28 cells assessed as early apoptotic cells at 2.5 uM incubated for 24 hrs by Annexin V-FITC/PI dual staining based flow cytometry analysis (reference value: 0.0%); format: functional
SK-MEL-28 [18] = experiment: Induction of cell cycle arrest in human SK-MEL-28 cells assessed as accumulation of cells at S phase at 2.5 uM measured after 48 hrs by PI staining based flow cytometry (reference value: 16.5%); format: functional
SK-MEL-28 [19] = experiment: Induction of cell cycle arrest in human SK-MEL-28 cells assessed as accumulation of cells at G2 phase at 5 uM measured after 48 hrs by PI staining based flow cytometry (reference value: 9.17%); format: functional
SK-MEL-28 [20] = experiment: Induction of apoptosis in human SK-MEL-28 cells assessed as late apoptotic cells at 5 uM incubated for 24 hrs by Annexin V-FITC/PI dual staining based flow cytometry analysis (reference value: 0.1%); format: functional

Work on `COc1cc(-c2nc3cc(F)ccc3[nH]2)ccc1OCC(=O)N1CCc2ccccc21` yielded an Activity (SK-MEL-28 [1]) of 51.45%, an Activity (SK-MEL-28 [2]) of 22.3% and an IC50 (HCT-116) of 6.98 µM. The selectivity ratio [3] was 14, the Activity (SK-MEL-28 [4]) was “Active” and the Activity (SK-MEL-28 [5]) was 10.7%. The inhibition (SK-MEL-28 [6]) was “Dose-Dependent Effect”, the Activity (SK-MEL-28 [7]) was 15.96% and the Activity (SK-MEL-28 [8]) was 20.2%. The Activity (SK-MEL-28 [9]) was 96.7%, the Activity (SK-MEL-28 [10]) was 25.66% and the selectivity ratio [11] was 7.7. It also gave an Activity (SK-MEL-28 [12]) of 24.82%, a selectivity ratio [13] of 17.4 and an Activity (SK-MEL-28 [14]) of 1%. The Activity (SK-MEL-28 [15]) was “Dose-Dependent Effect”, the IC50 (SK-MEL-28 [16]) was 2.69 µM and the Activity (SK-MEL-28 [17]) was 26.4%. The Activity (SK-MEL-28 [18]) was 23.71%, the Activity (SK-MEL-28 [19]) was 26.05% and the Activity (SK-MEL-28 [20]) was 35.1%.
